Counter-ions that a name gives are not always drawn.

The inhibition is the drop in the measured response relative to a control, in per cent. Broadly, the % inhibition is the drop in the measured response relative to a control, in per cent.

For one assay, the target named is T1, Rat brain protein farnesyltransferase (Rattus norvegicus, UniProt Q02293+Q04631).
T1 construct: The enzyme is purified according to Reiss, Y., et al., Cell, 62: 81-88 (1990), utilizing steps one through three; from tissue; host or cells: rat brain
Briefly: In vitro inhibition of protein farnesyltransferase, Amersham scintillation proximity assay with biotin-K Ras B fragment. The assay is classed as biochemical. Particulars: Inhibition of farnesyltransferase; compound at 1 × 10^−5 M (Table 1).
Molecule `CC(C)C[C@H](NC(=O)c1ccc(NCc2cnc[nH]2)cc1-c1cccc2ccccc12)C(=O)O` [Example 388, 4-[N-(1H-Imidazol-4-yl)methylamino-2-(1-naphthyl)benzoyl]leucine] displayed an inhibition at 10 µM greater than 50%.

Staying with this assay, now noted: Inhibition of farnesyltransferase; compound at 1 × 10^−6 M (Table 2).
Regarding “{4-[2-(3-Pyridy)-2-hydroxyethyl]-2-phenylbenzoyl]methionine Sodium Salt and {4-[2-(3-Pyridy)-1-hydroxyethyl]-2-phenylbenzoyl}methionine Sodium Salt [Example 284]”, the “% inhibition at 1 × 10^−6 M” value was found to be 83%. On the same count and under the same terms, next, `Cc1ccccc1-c1cc(COc2cccnc2)ccc1C(=O)N[C@@H](CCC(N)=O)C(=O)O` [Example 313, (S)-2-N-[4-(3-Pyridyloxymethyl)-2-(2-methyl)phenylbenzoyl]amino-4-(aminocarbonyl)butanoic Acid]: 94%; `CSCC[C@H](NC(=O)c1ccc(COc2cccnc2)cc1-c1ccc(C)cc1)C(=O)O` [Example 206]: 67%.

The assay is the same for the next values; noted with them: Inhibition of farnesyltransferase; compound at 1 × 10^−6 M (Table 2); read-out: % inhibition at 1 × 10^−6 M.
With `CSCC[C@H](NC(=O)c1ccc(NCc2cccnc2)cc1-c1ccccc1C)C(=O)O` [Example 309, [4-(3-Pyridylmethylamino)-2-(2-methylphenyl)benzoyl]methionine], the inhibition at 1 µM was determined as 98%. Regarding `CSCC[C@H](NC(=O)c1ccc(CNCc2c[nH]cn2)cc1-c1ccccc1)C(=O)O` [Example 225, [4-(1H-Imidazol-4-ylmethylaminomethyl)-2-phenylbenzoyl]methionine], the inhibition at 1 µM amounted to 93%. Same read-out and setting: the result for `CSCC[C@H](NC(=O)c1ccc(NCc2ncc[nH]2)cc1-c1ccccc1C)C(=O)O` [Example 386, 4-[N-(1-H-Imidazole-2-yl)methylamino-2-(2-methylphenyl)benzoyl]methionine] reads greater than 50%; that for `CCN(CC)C(=O)COC(=O)[C@H](CCSC)NC(=O)c1ccc(CN(Cc2ccccc2)c2cccnc2)cc1-c1ccccc1C` [Example 501, N,N-Diethylaminocarbonylmethyl N-[4-N-benzyl-N-pyridin-3-ylaminomethyl-2-(2-methylphenyl)benzoyl]methionine], 84%; that for `COC(=O)[C@H](CCSC)NC(=O)c1ccc(NCc2cccnc2)cc1-c1ccccc1C` [Example 308, [4-(3-Pyridylmethylamino)-2-(2-methylphenyl)benzoyl]methionine Methyl Ester], 62%.

Consider `CS(=O)(=O)CC[C@H](NC(=O)c1ccc(/C=C/c2cccnc2)cc1-c1ccccc1)C(=O)O` [Example 220, N-{4-[2-(Pyrid-3-yl)ethenyl]-2-phenylbenzoyl]-2-amino-4-(methylsulfonyl)butanoic Acid], for which the inhibition at 1 µM came out at 92%. With `CSCC[C@H](NC(=O)c1ccc(C(O)c2ccncc2)cc1-c1ccccc1)C(=O)O` (stereo partly shown) [Example 298, [4-(4-Pyridylhydroxymethyl)-2-phenylbenzoyl]methionine Sodium Salt], the inhibition at 1 µM amounted to 43%. Same read-out and setting: next, `CSCC[C@H](NC(=O)c1cc(CC(C)C)c(COc2cccnc2)cc1-c1ccccc1C)C(=O)O` [Example 320, [4-(3-Pyridyloxymethyl)-2-(2-methylphenyl)-5-isobutylbenzoyl]methionine]: 93%; `CSCC[C@H](NC(=O)c1ccc(NC(=O)c2c[nH]cn2)cc1-c1ccccc1)C(=O)O` [Example 168, [4-(1H-Imidazol-4-ylcarbonyl)amino-2-phenylbenzoyl]methionine Hydrochloride]: 92%. On to `CSCC[C@H](NC(=O)c1ccc(C=Cc2cccnc2)cc1-c1ccccc1C)C(=O)O` [Example 276, {4-[2-(Pyrid-3-yl)ethenyl]-2-(2-methylphenyl)benzoyl}methionine Sodium Salt], for which the inhibition at 1 µM came to 98%. Still for that read-out and setting: next, `COC(=O)[C@H](CCS(C)(=O)=O)NC(=O)c1ccc(CNc2cccnc2)cc1-c1ccccc1` (stereo in doubt) [Example 238, N-[4-(3-Pyridylaminomethyl)-2-phenylbenzoyl]-2-amino-4-(methylsulfonyl)butanoic Acid Methyl Ester]: 22%; `CCCC[C@H](NC(=O)c1ccc(COc2cccnc2)cc1-c1ccccc1)C(=O)O` [Example 244, N-[4-(3-Pyridyloxymethyl)-2-phenylbenzoyl]norleucine]: 21%; `CSCC[C@H](NC(=O)c1ccc(NC(=O)c2cccnc2)cc1-c1ccccc1C)C(=O)O` [Example 301, [4-(3-Pyridylcarbonylamino)-2-(2-methylphenyl)benzoyl]methionine]: 98%. Still for that read-out and setting: the result for `COc1ccccc1-c1cc(COc2cccnc2)ccc1C(=O)N[C@@H](CCSC)C(=O)O` [Example 207, [4-(3-Pyridyloxymethyl)-2-(2-methoxyphenyl)benzoyl]methionine] reads 98%. Same read-out and setting: next, `CS(=O)(=O)CC[C@H](NC(=O)c1ccc(CNc2cccnc2)cc1-c1ccccc1)C(=O)O` [Example 239, N-[4-(3-Pyridylaminomethyl)-2-phenylbenzoyl]-2-amino-4-(methylsulfonyl)butanoic Acid]: 97%; `CCCC(=O)OC(c1cccnc1)C(OC(=O)CCC)c1ccc(C(=O)N[C@@H](CCS(C)(=O)=O)C(=O)O)c(-c2ccccc2)c1` (stereo partly shown) [Example 223]: 63%. For the molecule `CC1(C)O[C@H](c2cccnc2)[C@@H](c2ccc(C(=O)N[C@@H](CCS(C)(=O)=O)C(=O)O)c(-c3ccccc3)c2)O1` [Example 222, N-{4-[2,2-Dimethyl-4-(3-pyridyl)-1,3-dioxolan-5-yl-]-2-phenylbenzoyl}-2-amino-4-methanesulfonylbutanoic Acid], the inhibition at 1 µM was 41%. In the case of `CSCC[C@H](NC(=O)c1ccc(C=Cc2cccnc2)cc1-c1ccccc1)C(=O)O` [Example 211, {4-[2-(Pyrid-3-yl)ethenyl]-2-phenylbenzoyl}methionine Sodium Salt], the inhibition at 1 µM came out at 98%. Take `CSCC[C@@H](NC(=O)c1ccc(CNc2cccnc2)cc1-c1ccccc1)C(=O)O` (stereo in doubt) [Example 189, [4-(3-Pyridylaminomethyl)-2-phenylbenzoyl]methionine]: the inhibition at 1 µM is 88%. Same read-out and setting: next, `COC(=O)[C@H](CCSC)N(C)C(=O)c1ccc(CNc2cccnc2)cc1-c1ccccc1` [Example 158, [4-(3-Pyridylaminomethylene)-2-phenylbenzoyl]-N-methylmetionine Methyl Ester]: 2%; `CSCC[C@H](NC(=O)c1ccc(COc2cccnc2)cc1-c1ccccc1C)C(=O)NS(C)(=O)=O` [Example 252, [4-(3-Pyridyloxymethyl)-2-(2-methylphenyl)benzoyl]methionine Methylsulfonimide]: 98%.

Consider `CSCC[C@H](NC(=O)c1cc(Cc2ccccc2)c(COc2cccnc2)cc1-c1ccccc1C)C(=O)O` [Example 344], for which the inhibition at 1 µM was determined as 95%.

On to `CSCC[C@H](NC(=O)c1ccc(/C=C/c2cccnc2)cc1-c1ccccc1C)C(=O)NC(=O)c1ccccc1` [Example 797, Benzoyl N-[4-(2-Pyrid-3-ylethen-1-yl)-2-(2-methylphenyl)benzoyl]methioninamide], for which the inhibition at 1 µM was 35%.

The assay is the same for the next values; noted with them: Inhibition of farnesyltransferase; compound at 1 × 10^−7 M (Table 3); read-out: % inhibition at 1 × 10^−7 M.
Consider `CSCC[C@H](NC(=O)c1ccc(C#Cc2cccnc2)cc1-c1ccccc1C)C(=O)O` [Example 865, N-[4-(2-Pyrid-3-ylethyn-1-yl)-2-(2-methylphenyl)benzoyl]methionine], for which the inhibition at 0.1 µM was 95%.

The assay is the same for the next values; noted with them: read-out: % inhibition at 0.01 μM.
For `CSCC[C@H](NC(=O)c1ccc(CN(Cc2cccnc2)c2cc(F)cc(F)c2)cc1-c1ccccc1C)C(=O)O` [Example 1287, N-[4-N-(N-3,5-Difluorophenyl-N-(3-pyridylmethyl)aminomethyl)-2-(2-methylphenyl)benzoyl]methionine Lithium Salt], the inhibition at 0.01 µM amounted to 95%.

The assay is the same for the next values; noted with them: read-out: % inhibition at 1 × 10^−6 M.
`CSCC[C@H](NC(=O)c1ccc(/C=C/c2cnccc2N(C)C)cc1-c1ccccc1)C(=O)O` [Example 214, {4-[2-(4-Dimethylaminopyrid-3-yl)ethenyl]-2-phenylbenzoyl}methionine Sodium Salt]: the inhibition at 1 µM is 97%. Same read-out and setting: the result for `CSCC[C@H](NC(=O)c1ccc(C=Cc2cccnc2)cc1-c1ccccc1C)C(=O)OCCN(C)C` [Example 294, {4-[2-(Pyrid-3-yl)ethenyl]-2-(2-methylphenyl)benzoyl}methionine Dimethylaminoethyl Ester] reads 98%; that for `CSCC[C@H](NC(=O)c1ccc(CNc2cnccc2C)cc1-c1ccccc1)C(=O)O` [Example 280], 98%. Same read-out and setting: the result for `CSCC[C@H](NC(=O)c1ccc(/C=C/n2ccnc2)cc1-c1ccccc1C)C(=O)O` [Example 278, {4-[2-(1H-1-Imidazolyl)ethenyl]-2-(2-methylphenyl)benzoyl}methionine Sodium Salt] reads 99%; that for `CNCCc1cnc[nH]1` [Example 722], 96%.

Regarding `CSCC[C@H](NC(=O)c1ccc(CCn2ccnc2)cc1-c1ccccc1C)C(=O)O` [Example 279, {4-[2-(1H-1-Imidazolyl)ethyl]-2-(2-methylphenyl)benzoyl}methionine Sodium Salt], the inhibition at 1 µM was 99%.

For `CSCC[C@H](NC(=O)c1ccc(C(O[Si](C)(C)C(C)(C)C)c2ccncc2)cc1-c1ccccc1)C(=O)O` (stereo partly shown) [Example 297, [4-(4-Pyridyl-t-butyldimethylsilyloxymethyl)-2-phenylbenzoyl]methionine Sodium Salt], the inhibition at 1 µM turned out to be 65%.

The assay is the same for the next values; noted with them: read-out: % inhibition at 1 × 10^−7 M.
Turning to `CSCC[C@H](NC(=O)c1ccc(/C=C/c2ccc(Oc3ccccc3Cl)nc2)cc1-c1ccccc1C)C(=O)O` [Example 802, Lithium Salt], the inhibition at 0.1 µM is 88%.

The record behind these values is patent US6693123B2 (University of Pittsburgh, priority 1995, dated 2004).
